{"source": "ChEMBL document CHEMBL1255353", "about": "“Antistreptococcal activity of AR-709 compared to that of other agents” (2008)", "format_in_all_cases": "functional", "key": {"Streptococcus pneumoniae [1]": {"tested_on": "Streptococcus pneumoniae", "assay": "Antimicrobial activity against penicillin-intermediate Streptococcus pneumoniae by agar dilution method"}, "Streptococcus pneumoniae [2]": {"tested_on": "Streptococcus pneumoniae", "assay": "Antimicrobial activity against trimethoprim-sulfamethoxazole-susceptible Streptococcus pneumoniae by agar dilution method"}, "Streptococcus pneumoniae [3]": {"tested_on": "Streptococcus pneumoniae", "assay": "Antimicrobial activity against quinolone-resistant Streptococcus pneumoniae by agar dilution method"}, "Streptococcus pneumoniae [4]": {"tested_on": "Streptococcus pneumoniae", "assay": "Antimicrobial activity against penicillin-resistant Streptococcus pneumoniae by agar dilution method"}, "Streptococcus pneumoniae [5]": {"tested_on": "Streptococcus pneumoniae", "assay": "Antimicrobial activity against quinolone-susceptible Streptococcus pneumoniae by agar dilution method"}, "[6]": {"tested_on": "Streptococcus sp. 'group A'", "assay": "Antimicrobial activity against macrolide-susceptible Streptococcus sp. 'group A' by agar dilution method"}, "Streptococcus pneumoniae [7]": {"tested_on": "Streptococcus pneumoniae", "assay": "Antimicrobial activity against penicillin-susceptible Streptococcus pneumoniae by agar dilution method"}, "Streptococcus pneumoniae [8]": {"tested_on": "Streptococcus pneumoniae", "assay": "Antimicrobial activity against macrolide-susceptible Streptococcus pneumoniae by agar dilution method"}, "Streptococcus pneumoniae [9]": {"tested_on": "Streptococcus pneumoniae", "assay": "Antimicrobial activity against macrolide-resistant Streptococcus pneumoniae by agar dilution method"}, "Streptococcus pneumoniae [10]": {"tested_on": "Streptococcus pneumoniae", "assay": "Antimicrobial activity against trimethoprim-sulfamethoxazole-resistant Streptococcus pneumoniae by agar dilution method"}, "[11]": {"tested_on": "Streptococcus sp. 'group A'", "assay": "Antimicrobial activity against macrolide-resistant Streptococcus sp. 'group A' by agar dilution method"}}, "data": [{"smiles": "CO/N=C(\\C(=O)N[C@@H]1C(=O)N2C(C(=O)O)=C(COC(N)=O)CS[C@H]12)c1ccco1", "note": "[CEFUROXIME]", "values": [{"measurement": "MIC50", "setting": "Streptococcus pneumoniae [1]", "value": 0.25, "unit": "µg/mL"}, {"measurement": "MIC90", "setting": "Streptococcus pneumoniae [1]", "value": 4, "unit": "µg/mL"}, {"measurement": "MIC50", "setting": "Streptococcus pneumoniae [2]", "value": 0.03, "unit": "µg/mL"}, {"measurement": "MIC90", "setting": "Streptococcus pneumoniae [2]", "value": 0.5, "unit": "µg/mL"}, {"measurement": "MIC50", "setting": "Streptococcus pneumoniae [3]", "value": 2, "unit": "µg/mL"}, {"measurement": "MIC90", "setting": "Streptococcus pneumoniae [3]", "value": 8, "unit": "µg/mL"}, {"measurement": "MIC50", "setting": "Streptococcus pneumoniae [4]", "value": 4, "unit": "µg/mL"}, {"measurement": "MIC90", "setting": "Streptococcus pneumoniae [4]", "value": 16, "unit": "µg/mL"}, {"measurement": "MIC50", "setting": "Streptococcus pneumoniae [5]", "value": 0.25, "unit": "µg/mL"}, {"measurement": "MIC90", "setting": "Streptococcus pneumoniae [5]", "value": 4, "unit": "µg/mL"}, {"measurement": "MIC", "setting": "[6]", "value": 0.016, "unit": "µg/mL"}, {"measurement": "MIC50", "setting": "[6]", "value": 0.016, "unit": "µg/mL"}, {"measurement": "MIC90", "setting": "[6]", "value": 0.016, "unit": "µg/mL"}, {"measurement": "MIC50", "setting": "Streptococcus pneumoniae [7]", "value": 0.03, "unit": "µg/mL"}, {"measurement": "MIC90", "setting": "Streptococcus pneumoniae [7]", "value": 0.12, "unit": "µg/mL"}, {"measurement": "MIC50", "setting": "Streptococcus pneumoniae [8]", "value": 0.25, "unit": "µg/mL"}, {"measurement": "MIC90", "setting": "Streptococcus pneumoniae [8]", "value": 4, "unit": "µg/mL"}, {"measurement": "MIC50", "setting": "Streptococcus pneumoniae [9]", "value": 0.5, "unit": "µg/mL"}, {"measurement": "MIC90", "setting": "Streptococcus pneumoniae [9]", "value": 8, "unit": "µg/mL"}, {"measurement": "MIC50", "setting": "Streptococcus pneumoniae [10]", "value": 2, "unit": "µg/mL"}, {"measurement": "MIC90", "setting": "Streptococcus pneumoniae [10]", "value": 8, "unit": "µg/mL"}, {"measurement": "MIC", "setting": "[11]", "value": 0.016, "unit": "µg/mL"}, {"measurement": "MIC50", "setting": "[11]", "value": 0.016, "unit": "µg/mL"}, {"measurement": "MIC90", "setting": "[11]", "value": 0.03, "unit": "µg/mL"}]}, {"smiles": "O=C(O)c1cn(C2CC2)c2cc(N3CCNCC3)c(F)cc2c1=O", "note": "[CIPROFLOXACIN]", "values": [{"measurement": "MIC50", "setting": "Streptococcus pneumoniae [1]", "value": 1, "unit": "µg/mL"}, {"measurement": "MIC90", "setting": "Streptococcus pneumoniae [1]", "value": 4, "unit": "µg/mL"}, {"measurement": "MIC50", "setting": "Streptococcus pneumoniae [3]", "value": 32, "unit": "µg/mL"}, {"measurement": "MIC90", "setting": "Streptococcus pneumoniae [3]", "value": "> 32", "unit": "µg/mL"}, {"measurement": "MIC50", "setting": "Streptococcus pneumoniae [5]", "value": 1, "unit": "µg/mL"}, {"measurement": "MIC90", "setting": "Streptococcus pneumoniae [5]", "value": 2, "unit": "µg/mL"}, {"measurement": "MIC", "setting": "[6]", "value": 0.5, "unit": "µg/mL"}, {"measurement": "MIC50", "setting": "[6]", "value": 0.5, "unit": "µg/mL"}, {"measurement": "MIC90", "setting": "[6]", "value": 1, "unit": "µg/mL"}, {"measurement": "MIC50", "setting": "Streptococcus pneumoniae [9]", "value": 1, "unit": "µg/mL"}, {"measurement": "MIC90", "setting": "Streptococcus pneumoniae [9]", "value": 4, "unit": "µg/mL"}, {"measurement": "MIC50", "setting": "Streptococcus pneumoniae [10]", "value": 1, "unit": "µg/mL"}, {"measurement": "MIC90", "setting": "Streptococcus pneumoniae [10]", "value": 4, "unit": "µg/mL"}, {"measurement": "MIC50", "setting": "[11]", "value": 0.5, "unit": "µg/mL"}, {"measurement": "MIC90", "setting": "[11]", "value": 2, "unit": "µg/mL"}]}, {"smiles": "C[C@H]1COc2c(N3CCN(C)CC3)c(F)cc3c(=O)c(C(=O)O)cn1c23.C[C@H]1COc2c(N3CCN(C)CC3)c(F)cc3c(=O)c(C(=O)O)cn1c23.O", "note": "[LEVOFLOXACIN]", "values": [{"measurement": "MIC50", "setting": "Streptococcus pneumoniae [1]", "value": 1, "unit": "µg/mL"}, {"measurement": "MIC90", "setting": "Streptococcus pneumoniae [1]", "value": 2, "unit": "µg/mL"}, {"measurement": "MIC50", "setting": "Streptococcus pneumoniae [2]", "value": 1, "unit": "µg/mL"}, {"measurement": "MIC90", "setting": "Streptococcus pneumoniae [2]", "value": 2, "unit": "µg/mL"}, {"measurement": "MIC50", "setting": "Streptococcus pneumoniae [3]", "value": 16, "unit": "µg/mL"}, {"measurement": "MIC90", "setting": "Streptococcus pneumoniae [3]", "value": 16, "unit": "µg/mL"}, {"measurement": "MIC50", "setting": "Streptococcus pneumoniae [4]", "value": 1, "unit": "µg/mL"}, {"measurement": "MIC90", "setting": "Streptococcus pneumoniae [4]", "value": 4, "unit": "µg/mL"}, {"measurement": "MIC50", "setting": "Streptococcus pneumoniae [5]", "value": 1, "unit": "µg/mL"}, {"measurement": "MIC90", "setting": "Streptococcus pneumoniae [5]", "value": 1, "unit": "µg/mL"}, {"measurement": "MIC", "setting": "[6]", "value": 0.5, "unit": "µg/mL"}, {"measurement": "MIC50", "setting": "[6]", "value": 0.5, "unit": "µg/mL"}, {"measurement": "MIC90", "setting": "[6]", "value": 2, "unit": "µg/mL"}, {"measurement": "MIC50", "setting": "Streptococcus pneumoniae [7]", "value": 1, "unit": "µg/mL"}, {"measurement": "MIC90", "setting": "Streptococcus pneumoniae [7]", "value": 8, "unit": "µg/mL"}, {"measurement": "MIC50", "setting": "Streptococcus pneumoniae [8]", "value": 1, "unit": "µg/mL"}, {"measurement": "MIC90", "setting": "Streptococcus pneumoniae [8]", "value": 8, "unit": "µg/mL"}, {"measurement": "MIC50", "setting": "Streptococcus pneumoniae [9]", "value": 1, "unit": "µg/mL"}, {"measurement": "MIC90", "setting": "Streptococcus pneumoniae [9]", "value": 2, "unit": "µg/mL"}, {"measurement": "MIC50", "setting": "Streptococcus pneumoniae [10]", "value": 1, "unit": "µg/mL"}, {"measurement": "MIC90", "setting": "Streptococcus pneumoniae [10]", "value": 2, "unit": "µg/mL"}, {"measurement": "MIC50", "setting": "[11]", "value": 0.5, "unit": "µg/mL"}, {"measurement": "MIC90", "setting": "[11]", "value": 1, "unit": "µg/mL"}]}, {"smiles": "CC1(C)S[C@@H]2[C@H](NC(=O)Cc3ccccc3)C(=O)N2[C@H]1C(=O)O", "note": "[PENICILLIN G]", "values": [{"measurement": "MIC50", "setting": "Streptococcus pneumoniae [1]", "value": 0.25, "unit": "µg/mL"}, {"measurement": "MIC90", "setting": "Streptococcus pneumoniae [1]", "value": 1, "unit": "µg/mL"}, {"measurement": "MIC50", "setting": "Streptococcus pneumoniae [2]", "value": 0.03, "unit": "µg/mL"}, {"measurement": "MIC90", "setting": "Streptococcus pneumoniae [2]", "value": 0.25, "unit": "µg/mL"}, {"measurement": "MIC50", "setting": "Streptococcus pneumoniae [3]", "value": 0.5, "unit": "µg/mL"}, {"measurement": "MIC90", "setting": "Streptococcus pneumoniae [3]", "value": 2, "unit": "µg/mL"}, {"measurement": "MIC", "setting": "Streptococcus pneumoniae [4]", "value": 2, "unit": "µg/mL"}, {"measurement": "MIC50", "setting": "Streptococcus pneumoniae [4]", "value": 2, "unit": "µg/mL"}, {"measurement": "MIC90", "setting": "Streptococcus pneumoniae [4]", "value": 4, "unit": "µg/mL"}, {"measurement": "MIC", "setting": "Streptococcus pneumoniae [5]", "value": 0.12, "unit": "µg/mL"}, {"measurement": "MIC50", "setting": "Streptococcus pneumoniae [5]", "value": 0.12, "unit": "µg/mL"}, {"measurement": "MIC90", "setting": "Streptococcus pneumoniae [5]", "value": 2, "unit": "µg/mL"}, {"measurement": "MIC50", "setting": "Streptococcus pneumoniae [7]", "value": 0.016, "unit": "µg/mL"}, {"measurement": "MIC90", "setting": "Streptococcus pneumoniae [7]", "value": 0.06, "unit": "µg/mL"}, {"measurement": "MIC50", "setting": "Streptococcus pneumoniae [8]", "value": 0.12, "unit": "µg/mL"}, {"measurement": "MIC90", "setting": "Streptococcus pneumoniae [8]", "value": 2, "unit": "µg/mL"}, {"measurement": "MIC50", "setting": "Streptococcus pneumoniae [9]", "value": 0.25, "unit": "µg/mL"}, {"measurement": "MIC90", "setting": "Streptococcus pneumoniae [9]", "value": 4, "unit": "µg/mL"}, {"measurement": "MIC50", "setting": "Streptococcus pneumoniae [10]", "value": 1, "unit": "µg/mL"}, {"measurement": "MIC90", "setting": "Streptococcus pneumoniae [10]", "value": 4, "unit": "µg/mL"}]}]}
